In patent US20250277784A1, “EXPRESSION SYSTEMS FOR THE ALPHA6BETA4 NICOTINIC ACETYLCHOLINE RECEPTOR AND METHODS OF USE THEREOF” (Janssen Pharmaceutica NV, priority 2021, published 2025):
Like-named read-outs stand apart in the source and are kept apart here.

Assays:
α6 knockout mice = details: following both inflammatory and neuropathic injuries; cited from earlier work
Human α6β4 nAChR [1] = target: T1, Human α6β4 nAChR (Homo sapiens, UniProt P30926+Q15825); assay: FLIPR assay, agonist-evoked calcium flux in recombinant cells co-transfected with BARP, SULT2B1 and CHAT; format: cell-based
T1 construct: expressed in transfected cells
Procedure: In one embodiment, FLIPR assay is used to identify agonists of α6β4 nAChR mediated calcium flux. In this assay, the recombinant cells are incubated with a calcium sensitive dye (such as Ca5), exposed to a test compound, and calcium flux is imaged by FLIPR^TETRA.
• Prepare a cell suspension of 1×10^6 cells per mL by centrifuging cells and resuspending in fresh, prewarmed media; • With 1900 mL of cells shaking, prepare the following transfection mix in 50 ml of OptiPro SFM Medium; • Add 2.5 mL FreeStyle MAX reagent to 47.5 mL of OptiPro SFM to an empty 50 ml tube; • In a second 50 ml tube, add 2.5 mg total DNA (α6, β4, BARP, CHAT, and SULT2B1 at a ratio of 1:1:2:1:1) in OptiPro SFM to a final volume of 50 ml and vortex gently; • Transfer the diluted DNA to the FreeStyle MAX reagent and gently mix the solution immediately and incubate for 10 minutes at room temperature; • Transfer the 100 ml FreeStyle MAX/DNA transfection mix to the cells and homogenize the culture; • Incubate 1 hour at 37° C. with 8% CO2; • Pour cells into sterile 500 mL tubes; • Spin at 1000 rpm for 7 minutes; • Remove supernatant; and • Resuspend Cells in Plating Media.
• Ethanol vials to decontaminate; • Pour cells into 50 ml conical tube; • Slowly add 10 ml warmed plating media drop wise; • Pipet up and down gently a few times to dislodge pellet if it exists; • Spin at 1000 RPM for 7 min, aspirate supernatant, and resuspend in 25 ml plating; • Seed 35,000 cells/well in 35 μL (1.0×10^6 cells/mL); and • Incubate plates for 24 hours at 37° C. Then transfer the plate to 30° C. with 5% CO2 in a humidified atmosphere for 24-48 hours.
• Wash plate with plate washer (4 washes×100 μL/wash) using compound dilution buffer, leaving 25 µL in each well; • Add 25 μL of 2× Ca6 dye to each well; • Incubate at room temperature for 1 hour; • Wash plate with plate washer (4 washes×100 μL/wash) using compound dilution buffer, leaving 50 µL in each well; • Transfer plates to FLIPR for compound addition. Concentration Response Curves for Agonist-Evoked Activity of α6β4 nAChR
Human α6 and β4 subunits of α6β4 nAChR were co-transfected with BARP, SULT2B1, and CHAT in HEK293T cells and incubated at 30° C. for 24-48 hours. The transfected cells were incubated for one hour at room temperature with Ca5 dye followed by stimulating with agonists for 3.5 minutes. Agonist-evoked calcium flux was measured using a FLIPR^TETRA imager and final FLIPR signals were averaged and plotted (FIG. 1).

Human α6β4 nAChR [2] = target: T1, Human α6β4 nAChR; assay: FLIPR assay, antagonist on nicotine-evoked calcium flux (two-addition protocol); format: cell-based; details: HEK293T cells, 1st addition test compound 3 min, 2nd addition nicotine (EC80, 15 μM) 3.5 min, FIG. 2
Procedure: In one embodiment, FLIPR assay is used to identify antagonists of nicotine-evoked α6β4 nAChR mediated calcium flux. In this assay, the recombinant cells are incubated with a calcium sensitive dye (such as Ca5). Using a double addition protocol, the recombinant cells are exposed to test compounds during the first duration, and to nicotine (e.g., at EC80 (15 μm)) during the second duration. Thereafter, the calcium flux is imaged by FLIPR^TETRA. […]
Human α6 and β4 subunits of α6β4 nAChR were co-transfected with BARP, SULT2B1, and CHAT in HEK293T cells and incubated at 30° C. for 24-48 hour. […] Nicotine-evoked calcium flux was then measured using a FLIPR^TETRA imager and the final FLIPR signals were averaged and plotted (FIG. 2).

[3] = system: patients with diabetic peripheral neuropathic pain; details: phase 2 clinical trial; cited from earlier work
[4] = HEK293T cells, incubated at 30° C. for 24-48 hours, Ca5 dye, agonist stimulation 3.5 minutes, FIG. 1

T1 sequence (Q15825 26-494): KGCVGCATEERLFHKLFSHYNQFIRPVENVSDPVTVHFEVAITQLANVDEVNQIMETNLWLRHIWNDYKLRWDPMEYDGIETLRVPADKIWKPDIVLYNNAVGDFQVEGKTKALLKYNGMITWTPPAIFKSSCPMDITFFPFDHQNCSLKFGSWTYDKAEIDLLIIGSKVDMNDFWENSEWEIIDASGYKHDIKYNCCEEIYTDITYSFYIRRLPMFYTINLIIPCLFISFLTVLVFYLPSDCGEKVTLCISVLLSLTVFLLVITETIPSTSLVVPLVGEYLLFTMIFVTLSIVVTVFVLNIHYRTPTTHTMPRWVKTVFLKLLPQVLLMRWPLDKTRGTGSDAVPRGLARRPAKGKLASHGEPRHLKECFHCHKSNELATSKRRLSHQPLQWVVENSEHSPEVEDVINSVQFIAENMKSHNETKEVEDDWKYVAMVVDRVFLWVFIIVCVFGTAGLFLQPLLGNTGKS
T1 sequence (P30926 22-498): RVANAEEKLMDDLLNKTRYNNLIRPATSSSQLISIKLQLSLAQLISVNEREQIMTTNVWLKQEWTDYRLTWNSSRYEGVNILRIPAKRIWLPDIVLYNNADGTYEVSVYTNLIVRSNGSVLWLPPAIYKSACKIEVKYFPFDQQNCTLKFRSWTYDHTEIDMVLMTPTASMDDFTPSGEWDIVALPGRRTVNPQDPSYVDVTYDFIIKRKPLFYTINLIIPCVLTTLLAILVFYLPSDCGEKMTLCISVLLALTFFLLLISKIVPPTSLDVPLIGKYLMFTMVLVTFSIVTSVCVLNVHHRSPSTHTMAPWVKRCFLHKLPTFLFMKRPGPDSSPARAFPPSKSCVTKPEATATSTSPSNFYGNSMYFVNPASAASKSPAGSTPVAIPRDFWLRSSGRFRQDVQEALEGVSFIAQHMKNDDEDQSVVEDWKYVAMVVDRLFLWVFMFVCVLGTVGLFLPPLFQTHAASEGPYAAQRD

## CN1CCCC1c1cccnc1 (stereo not drawn) [nicotine]
α6 knockout mice
  Analgesic effects: absent
Human α6β4 nAChR [1]
  Agonist-evoked calcium flux (FLIPR signal): enhances calcium flux in a dose-dependent manner
  Nicotine EC80: 15 µM

## c1cncc(OC[C@@H]2CCN2)c1 [A-85380]
Human α6β4 nAChR [1]; [4]
  Agonist-evoked calcium flux (FLIPR signal): enhances calcium flux in a dose-dependent manner

## O=c1cccc2n1C[C@@H]1CNC[C@H]2C1 [cytisine]
Human α6β4 nAChR [1]
  Agonist-evoked calcium flux (FLIPR signal): enhances calcium flux in a dose-dependent manner

## Clc1ccc(C2CC3CCC2N3)cn1 (stereo not drawn) [epibatidine]
Human α6β4 nAChR [1]; [4]
  Agonist-evoked calcium flux (FLIPR signal): enhances calcium flux in a dose-dependent manner

## CCN1C[C@]2(COC(=O)c3ccccc3N3C(=O)C[C@H](C)C3=O)CC[C@H](OC)[C@@]34[C@@H]5C[C@H]6[C@H](OC)[C@@H]5[C@](O)(C[C@@H]6OC)[C@@](O)([C@@H](OC)[C@H]23)[C@@H]14 [MLA, methyllycaconitine]
Human α6β4 nAChR [2]
  Nicotine-evoked calcium flux (FLIPR signal): decreases the nicotine-evoked calcium flux in a dose-dependent manner

## Clc1cc(N2C[C@@H]3CN[C@@H]3C2)cnc1Cl [ABT-894]
Human α6β4 nAChR [1]; [4]
  Agonist-evoked calcium flux (FLIPR signal): enhances calcium flux in a dose-dependent manner

## c1cnc2cc3c(cc2n1)[C@@H]1CNC[C@H]3C1 [varenicline]
Human α6β4 nAChR [1]; [4]
  Agonist-evoked calcium flux (FLIPR signal): enhances calcium flux in a dose-dependent manner

## Clc1ccc(OC[C@H]2CCN2)cn1 [ABT-594]
[3]
  Efficacy for diabetic neuropathy: robust efficacy
  Side effects: unacceptable side effects
Human α6β4 nAChR [1]; [4]
  Agonist-evoked calcium flux (FLIPR signal): enhances calcium flux in a dose-dependent manner
